Results reported in the NIST ThermoML archive (doi:10.1021/je030130y).
± gives the expanded uncertainty stated by the source.

Assay: xn = mol fraction of the nth substance listed
Conditions: 101.3 kPa, Liquid; for viscosity: Capillary tube (Ostwald / Ubbelohde) method; for mass density: Pycnometric method

Clc1ccccc1 [chlorobenzene] + CN(C)C=O
Conditions | mass density, 298.15 K [kg/m3] | mass density, 303.15 K [kg/m3] | mass density, 308.15 K [kg/m3] | mass density, 313.15 K [kg/m3] | viscosity, 298.15 K [mPa·s] | viscosity, 303.15 K [mPa·s] | viscosity, 308.15 K [mPa·s] | viscosity, 313.15 K [mPa·s]
x2 = 0 | 1100.9 ± 0.4 | 1095.8 ± 0.4 | 1090.8 ± 0.4 | 1085.1 ± 0.4 | 0.756 ± 0.006 | 0.714 ± 0.006 | 0.673 ± 0.005 | 0.635 ± 0.005
x2 = 0.1473 | 1083.5 ± 0.4 | 1078.5 ± 0.4 | 1073.6 ± 0.4 | 1068.1 ± 0.4 | 0.79 ± 0.006 | 0.745 ± 0.006 | 0.701 ± 0.005 | 0.661 ± 0.005
x2 = 0.2093 | 1076.3 ± 0.4 | 1071.3 ± 0.4 | 1066.5 ± 0.4 | 1063.1 ± 4 | 0.804 ± 0.006 | 0.757 ± 0.006 | 0.712 ± 0.006 | 0.671 ± 0.005
x2 = 0.2762 | 1068.1 ± 0.4 | 1063.2 ± 0.4 | 1058.3 ± 0.4 | 1052.9 ± 0.4 | 0.818 ± 0.006 | 0.77 ± 0.006 | 0.723 ± 0.006 | 0.681 ± 0.005
x2 = 0.4032 | 1051.2 ± 0.4 | 1046.3 ± 0.4 | 1041.5 ± 0.4 | 1036.3 ± 0.4 | 0.838 ± 0.006 | 0.788 ± 0.006 | 0.739 ± 0.006 | 0.696 ± 0.005
x2 = 0.4661 | 1042.2 ± 0.4 | 1037.3 ± 0.4 | 1032.5 ± 0.4 | 1027.2 ± 0.4 | 0.847 ± 0.006 | 0.795 ± 0.006 | 0.745 ± 0.006 | 0.702 ± 0.005
x2 = 0.6084 | 1020.2 ± 0.4 | 1015.4 ± 0.4 | 1010.6 ± 0.4 | 1005.4 ± 0.4 | 0.862 ± 0.006 | 0.808 ± 0.006 | 0.757 ± 0.006 | 0.714 ± 0.006
x2 = 0.7009 | 1003.8 ± 0.4 | 999.1 ± 0.4 | 994.5 ± 0.4 | 989.4 ± 0.4 | 0.856 ± 0.006 | 0.803 ± 0.006 | 0.752 ± 0.006 | 0.709 ± 0.005
x2 = 0.7842 | 988.1 ± 0.4 | 983.4 ± 0.4 | 978.7 ± 0.4 | 973.7 ± 0.4 | 0.846 ± 0.006 | 0.794 ± 0.006 | 0.744 ± 0.006 | 0.702 ± 0.005
x2 = 0.9351 | 957.7 ± 0.3 | 953 ± 0.3 | 948.3 ± 0.4 | 943.4 ± 0.4 | 0.818 ± 0.006 | 0.769 ± 0.006 | 0.721 ± 0.006 | 0.683 ± 0.005

Clc1ccccc1 [chlorobenzene] + c1ccccc1
Conditions | mass density, 298.15 K [kg/m3] | mass density, 303.15 K [kg/m3] | mass density, 308.15 K [kg/m3] | mass density, 313.15 K [kg/m3] | viscosity, 298.15 K [mPa·s] | viscosity, 303.15 K [mPa·s] | viscosity, 308.15 K [mPa·s] | viscosity, 313.15 K [mPa·s]
x2 = 0 | 1100.9 ± 0.4 | 1095.8 ± 0.4 | 1090.8 ± 0.4 | 1085.1 ± 0.4 | 0.756 ± 0.006 | 0.714 ± 0.006 | 0.673 ± 0.005 | 0.635 ± 0.005
x2 = 0.1206 | 1076.5 ± 0.4 | 1071.4 ± 0.4 | 1066.4 ± 0.4 | 1060.7 ± 0.4 | 0.744 ± 0.006 | 0.699 ± 0.006 | 0.656 ± 0.005 | 0.618 ± 0.005
x2 = 0.2642 | 1046.5 ± 0.4 | 1041.4 ± 0.4 | 1036.3 ± 0.4 | 1030.7 ± 0.4 | 0.727 ± 0.006 | 0.682 ± 0.006 | 0.639 ± 0.005 | 0.601 ± 0.005
x2 = 0.3982 | 1017.5 ± 0.4 | 1012.4 ± 0.4 | 1007.3 ± 0.4 | 1001.7 ± 0.5 | 0.711 ± 0.006 | 0.667 ± 0.006 | 0.623 ± 0.005 | 0.585 ± 0.005
x2 = 0.4644 | 1002.8 ± 0.4 | 997.7 ± 0.5 | 992.6 ± 0.5 | 987 ± 0.5 | 0.702 ± 0.006 | 0.659 ± 0.006 | 0.616 ± 0.005 | 0.578 ± 0.005
x2 = 0.5321 | 987.7 ± 0.5 | 982.5 ± 0.5 | 977.3 ± 0.5 | 971.7 ± 0.5 | 0.694 ± 0.006 | 0.65 ± 0.006 | 0.607 ± 0.005 | 0.57 ± 0.005
x2 = 0.6074 | 970.4 ± 0.5 | 965.2 ± 0.5 | 960 ± 0.5 | 954.5 ± 0.5 | 0.683 ± 0.006 | 0.64 ± 0.006 | 0.598 ± 0.005 | 0.561 ± 0.005
x2 = 0.7069 | 946.8 ± 0.5 | 941.6 ± 0.5 | 936.4 ± 0.5 | 930.9 ± 0.5 | 0.665 ± 0.006 | 0.623 ± 0.006 | 0.582 ± 0.005 | 0.545 ± 0.005
x2 = 0.8131 | 920.9 ± 0.5 | 915.7 ± 0.5 | 910.5 ± 0.5 | 905 ± 0.5 | 0.643 ± 0.006 | 0.601 ± 0.005 | 0.562 ± 0.005 | 0.527 ± 0.005
x2 = 0.9162 | 895 ± 0.5 | 889.8 ± 0.5 | 884.6 ± 0.5 | 879.2 ± 0.5 | 0.621 ± 0.006 | 0.583 ± 0.005 | 0.545 ± 0.005 | 0.512 ± 0.005

CN(C)C=O [dimethylformamide] + c1ccccc1
Conditions | mass density, 298.15 K [kg/m3] | mass density, 303.15 K [kg/m3] | mass density, 308.15 K [kg/m3] | mass density, 313.15 K [kg/m3] | viscosity, 298.15 K [mPa·s] | viscosity, 303.15 K [mPa·s] | viscosity, 308.15 K [mPa·s] | viscosity, 313.15 K [mPa·s]
x1 = 0.1076 | 881.1 ± 0.5 | 876 ± 0.5 | 870.8 ± 0.5 | 865.4 ± 0.5 | 0.622 ± 0.006 | 0.585 ± 0.005 | 0.547 ± 0.005 | 0.515 ± 0.005
x1 = 0.2069 | 888.4 ± 0.5 | 883.5 ± 0.5 | 878.4 ± 0.5 | 873.3 ± 0.5 | 0.641 ± 0.006 | 0.603 ± 0.005 | 0.564 ± 0.005 | 0.531 ± 0.005
x1 = 0.3124 | 896.3 ± 0.4 | 891.4 ± 0.4 | 886.5 ± 0.4 | 881.5 ± 0.5 | 0.662 ± 0.006 | 0.622 ± 0.006 | 0.582 ± 0.005 | 0.549 ± 0.005
x1 = 0.4132 | 904.2 ± 0.4 | 899.4 ± 0.4 | 894.6 ± 0.4 | 889.6 ± 0.4 | 0.688 ± 0.006 | 0.645 ± 0.006 | 0.602 ± 0.005 | 0.567 ± 0.005
x1 = 0.5148 | 911.7 ± 0.4 | 906.9 ± 0.4 | 902.2 ± 0.4 | 897.2 ± 0.4 | 0.712 ± 0.006 | 0.67 ± 0.006 | 0.627 ± 0.005 | 0.592 ± 0.005
x1 = 0.6145 | 918.6 ± 0.4 | 913.7 ± 0.4 | 908.9 ± 0.4 | 904 ± 0.4 | 0.731 ± 0.006 | 0.688 ± 0.006 | 0.644 ± 0.005 | 0.608 ± 0.005
x1 = 0.7093 | 925 ± 0.4 | 920.2 ± 0.4 | 915.4 ± 0.4 | 910.3 ± 0.4 | 0.747 ± 0.006 | 0.703 ± 0.006 | 0.659 ± 0.005 | 0.622 ± 0.005
x1 = 0.8084 | 931.6 ± 0.4 | 927 ± 0.4 | 922.2 ± 0.4 | 917.2 ± 0.4 | 0.763 ± 0.006 | 0.718 ± 0.006 | 0.673 ± 0.005 | 0.636 ± 0.005
x1 = 0.8998 | 936.8 ± 0.4 | 932.1 ± 0.4 | 927.4 ± 0.4 | 922.5 ± 0.4 | 0.78 ± 0.006 | 0.734 ± 0.006 | 0.689 ± 0.005 | 0.651 ± 0.005
x1 = 1 | 944.5 ± 0.3 | 939.8 ± 0.3 | 935.1 ± 0.3 | 930.2 ± 0.4 | 0.803 ± 0.006 | 0.756 ± 0.006 | 0.71 ± 0.005 | 0.673 ± 0.005
